Test results published in ChEMBL document CHEMBL4680261, “DDX3X inhibitors, an effective way to overcome HIV-1 resistance targeting host proteins” (Eur J Med Chem, 2020).
One block for each compound: values may come before it.

Legend:
[1] = system: Human immunodeficiency virus 1; test: (§1) Antiviral activity against HIV-1 NL4-3 infected in human TZM-bl cells infected with supernatants from virus-infected human H9 cells treated with compound for 72 hrs assessed as reduction in luciferase expression measured after 48 hrs by luciferase reporter gene assay based BiCycle assay; assay type: functional, organism-based; details: Human immunodeficiency virus 1, NL4-3
[2] = target: ATP-dependent RNA helicase DDX3X (Homo sapiens, UniProt O00571); test: Inhibition of human DDX3X using dsRNA as substrate measured every 30 sec for 40 mins by FRET assay
[3] = Apparent permeability of compound incubated for 5 hrs by PAMPA assay; assay type: ADME
[4] = Metabolic stability in human liver microsomes assessed as parent compound remaining measured after 60 mins by LC-UV-MS analysis; assay type: ADME, Microsome; details: read-out: Stabilty
[5] = AUC (0 to t) in BALB/c mouse at 8 mg/kg, iv measured upto 24 hrs by HPLC-MS analysis; assay type: ADME, organism-based; parameters: route intravenous, dose 8 mg/kg, time <=24; details: in vivo
[6] = Drug excretion in BALB/c mouse at 16 to 32 mg/kg, iv measured upto 24 hrs; assay type: ADME, organism-based; details: in vivo, dose 16-32 mg/kg, read-out: Drug excretion
[7] = Toxicity in BALB/c mouse assessed as effect on brain at 32 mg/kg, iv administered three times a week for 3 weeks by hematoxylin and eosin staining based microscopic imaging analysis; assay type: organism-based; details: in vivo, 504 h
[8] = Toxicity in BALB/c mouse assessed as reduction in body weight at 32 mg/kg, iv administered three times a week for 3 weeks; assay type: organism-based; details: in vivo, 504 h
[9] = Observed volume of distribution at steady state in BALB/c mouse at 8 mg/kg, iv measured upto 24 hrs by HPLC-MS analysis; assay type: ADME, organism-based; details: in vivo, read-out: Vdss
[10] = system: Human immunodeficiency virus 1; test: as §1, with “12231 harboring non-nucleoside reverse transcriptase K103N/V179F/Y181C mutant” for “NL4-3”; assay type: functional, organism-based; details: Human immunodeficiency virus 1, 12231
[11] = Observed volume of distribution at steady state in BALB/c mouse at 16 mg/kg, iv measured upto 24 hrs by HPLC-MS analysis; assay type: ADME, organism-based; details: in vivo, read-out: Vdss
[12] = Observed AUC (0 to infinity) in BALB/c mouse at 8 mg/kg, iv measured upto 24 hrs by HPLC-MS analysis; assay type: ADME, organism-based; parameters: route intravenous, dose 8 mg/kg, time <=24; details: in vivo
[13] = system: Human immunodeficiency virus 1; test: as §1, with “7400 harboring nucleos(t)ide reverse transcriptase M41L/E44D/D67N/T69D/M184VL210W/T215Y mutant” for “NL4-3”; assay type: functional, organism-based; details: Human immunodeficiency virus 1, 7400
[14] = Half life in BALB/c mouse at 16 mg/kg, iv measured upto 24 hrs by HPLC-MS analysis; assay type: ADME, organism-based; details: in vivo
[15] = (§2) Selectivity index, ratio of IC50 for antiviral activity against HIV-1 7400 harboring nucleos(t)ide reverse transcriptase M41L/E44D/D67N/T69D/M184VL210W/T215Y mutant infected in human TZM-bl cells infected with supernatants from virus-infected human H9 cells to IC50 for antiviral activity against HIV-1 […] infected in human TZM-bl cells infected with supernatants from virus-infected human H9 cells; assay type: functional, Human immunodeficiency virus 1
[16] = as §2, with “11847” for “7400”, “integrase G140S/Q148H” for “nucleos(t)ide reverse transcriptase M41L/E44D/D67N/T69D/M184VL210W/T215Y”; assay type: functional, Human immunodeficiency virus 1
[17] = Cmax in BALB/c mouse at 8 mg/kg, iv measured upto 24 hrs by HPLC-MS analysis; assay type: ADME, organism-based; parameters: route intravenous, dose 8 mg/kg, time <=24; details: in vivo
[18] = AUC (0 to t) in BALB/c mouse at 32 mg/kg, iv measured upto 24 hrs by HPLC-MS analysis; assay type: ADME, organism-based; parameters: route intravenous, dose 32 mg/kg, time <=24; details: in vivo
[19] = AUC (0 to t) in BALB/c mouse at 16 mg/kg, iv measured upto 24 hrs by HPLC-MS analysis; assay type: ADME, organism-based; parameters: route intravenous, dose 16 mg/kg, time <=24; details: in vivo
[20] = Toxicity in BALB/c mouse assessed as effect on liver at 32 mg/kg, iv administered three times a week for 3 weeks by hematoxylin and eosin staining based microscopic imaging analysis; assay type: organism-based; details: in vivo, 504 h
[21] = Observed AUC (0 to infinity) in BALB/c mouse at 16 mg/kg, iv measured upto 24 hrs by HPLC-MS analysis; assay type: ADME, organism-based; parameters: route intravenous, dose 16 mg/kg, time <=24; details: in vivo
[22] = Toxicity in BALB/c mouse assessed as organism death at 32 mg/kg, iv administered three times a week for 3 weeks; assay type: organism-based; details: in vivo, 504 h
[23] = Observed AUC (0 to infinity) in BALB/c mouse at 32 mg/kg, iv measured upto 24 hrs by HPLC-MS analysis; assay type: ADME, organism-based; parameters: route intravenous, dose 32 mg/kg, time <=24; details: in vivo
[24] = Cmax in BALB/c mouse at 16 mg/kg, iv measured upto 24 hrs by HPLC-MS analysis; assay type: ADME, organism-based; parameters: route intravenous, dose 16 mg/kg, time <=24; details: in vivo
[25] = as §2, with “12231” for “7400”, “non-nucleoside” for “nucleos(t)ide”, “K103N/V179F/Y181C” for “M41L/E44D/D67N/T69D/M184VL210W/T215Y”; assay type: functional, Human immunodeficiency virus 1
[26] = Half life in BALB/c mouse at 32 mg/kg, iv measured upto 24 hrs by HPLC-MS analysis; assay type: ADME, organism-based; details: in vivo
[27] = Tmax in BALB/c mouse at 16 to 32 mg/kg, iv measured upto 24 hrs; assay type: ADME, organism-based; details: in vivo, dose 16-32 mg/kg
[28] = system: Human immunodeficiency virus 1; test: as §1, with “11847 harboring integrase G140S/Q148H mutant” for “NL4-3”; assay type: functional, organism-based; details: Human immunodeficiency virus 1, 11847
[29] = Half life in BALB/c mouse at 8 mg/kg, iv measured upto 24 hrs by HPLC-MS analysis; assay type: ADME, organism-based; details: in vivo
[30] = Drug uptake in BALB/c mouse spleen at 16 to 32 mg/kg, iv measured upto 24 hrs; assay type: ADME, organism-based; details: in vivo, dose 16-32 mg/kg
[31] = Toxicity in BALB/c mouse assessed as effect on kidney at 32 mg/kg, iv administered three times a week for 3 weeks by hematoxylin and eosin staining based microscopic imaging analysis; assay type: organism-based; details: in vivo, 504 h
[32] = Plasma concentration in BALB/c mouse at 16 to 32 mg/kg, iv measured after 240 mins; assay type: ADME, organism-based; details: dose 16-32 mg/kg
[33] = system: Human immunodeficiency virus 1; test: as §1, with “11808 harboring protease V32I/I54V/I84V/L90M mutant” for “NL4-3”; assay type: functional, organism-based; details: Human immunodeficiency virus 1, 11808
[34] = Observed clearance in BALB/c mouse at 8 mg/kg, iv measured upto 24 hrs by HPLC-MS analysis; assay type: ADME, organism-based; details: in vivo
[35] = Cmax in BALB/c mouse at 32 mg/kg, iv measured upto 24 hrs by HPLC-MS analysis; assay type: ADME, organism-based; parameters: route intravenous, dose 32 mg/kg, time <=24; details: in vivo
[36] = as §2, with “11808” for “7400”, “protease V32I/I54V/I84V/L90M” for “nucleos(t)ide reverse transcriptase M41L/E44D/D67N/T69D/M184VL210W/T215Y”; assay type: functional, Human immunodeficiency virus 1
[37] = Plasma concentration in BALB/c mouse at 16 to 32 mg/kg, iv measured after 24 hrs; assay type: ADME, organism-based; details: dose 16-32 mg/kg
[38] = Drug uptake in BALB/c mouse brain at 16 to 32 mg/kg, iv measured upto 24 hrs; assay type: ADME, organism-based; details: in vivo, dose 16-32 mg/kg
[39] = Observed clearance in BALB/c mouse at 16 mg/kg, iv measured upto 24 hrs by HPLC-MS analysis; assay type: ADME, organism-based; details: in vivo

Chain of ATP-dependent RNA helicase DDX3X (O00571 whole entry): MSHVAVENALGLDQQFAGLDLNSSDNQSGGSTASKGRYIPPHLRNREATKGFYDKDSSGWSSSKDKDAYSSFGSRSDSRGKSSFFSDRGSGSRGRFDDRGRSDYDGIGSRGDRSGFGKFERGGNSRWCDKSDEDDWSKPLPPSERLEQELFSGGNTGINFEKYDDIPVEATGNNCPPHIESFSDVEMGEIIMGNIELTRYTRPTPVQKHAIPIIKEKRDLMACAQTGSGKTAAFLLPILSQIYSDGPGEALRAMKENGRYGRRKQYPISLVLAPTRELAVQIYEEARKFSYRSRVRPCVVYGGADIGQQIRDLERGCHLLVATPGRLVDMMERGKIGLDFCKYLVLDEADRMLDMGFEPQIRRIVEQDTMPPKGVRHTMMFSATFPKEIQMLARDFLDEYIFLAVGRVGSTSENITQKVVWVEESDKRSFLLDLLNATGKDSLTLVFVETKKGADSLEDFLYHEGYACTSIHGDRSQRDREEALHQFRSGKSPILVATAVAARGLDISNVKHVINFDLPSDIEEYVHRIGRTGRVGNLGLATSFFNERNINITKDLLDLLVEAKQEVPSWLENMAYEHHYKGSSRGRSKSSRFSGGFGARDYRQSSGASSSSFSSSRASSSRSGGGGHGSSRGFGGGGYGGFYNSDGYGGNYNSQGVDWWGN

IC50 [1]: 1.11 µM
Compound: CCCCc1cn(-c2ccc(NC(=O)Nc3ccccc3C)cc2)nn1

IC50 ([2]; read-out: IC50): 0.49 µM
Compound: CCCCc1cn(-c2ccc(NC(=O)Nc3cc(O)ccc3C)cc2)nn1

IC50 ([2]; read-out: IC50): 0.82 µM
Compound: CCCCc1cn(-c2ccc(NC(=O)Nc3cc(OCOC)ccc3C)cc2)nn1

IC50 ([2]; read-out: IC50): 2.49 µM
Compound: CCCCc1cn(-c2ccc(NC(=O)Nc3cc(CCC(C)=O)ccc3C)cc2)nn1

IC50 ([2]; read-out: IC50): 13 µM
Compound: Cc1ccccc1NC(=O)Nc1ccc(-n2cc(CCO)nn2)cc1

remaining at 1 h [4]: 94.2%
Compound: COCCc1cn(-c2ccc(NC(=O)Nc3ccccc3C)cc2)nn1

IC50 ([2]; read-out: IC50): 1.51 µM | IC50 [1]: 3.8 µM
Compound: CCOCc1cn(-c2ccc(NC(=O)Nc3cc(C(C)C)ccc3C)cc2)nn1

The remaining lines, values behind:

Compound: CCCCc1cn(-c2ccc(NC(=O)Nc3cc(O[C@H]4O[C@@H](CO)[C@H](O)[C@@H]4O)ccc3C)cc2)nn1
IC50 [2]: Not Active | IC50 [1]: > 50 µM

Compound: CCOP(=O)(OCC)OCCc1cn(-c2ccc(NC(=O)Nc3ccccc3C)cc2)nn1
Papp at 5 h [3]: 7.2 nm/s | remaining at 1 h [4]: 53.7% | IC50 [1]: > 50 µM

Compound: CCCCc1cn(-c2ccc(NC(=O)Nc3cc(OC4CCCC4)ccc3C)cc2)nn1
Papp at 5 h [3]: 19.6 nm/s | IC50 ([2]; read-out: IC50): 0.14 µM | remaining at 1 h [4]: 92.5% | IC50 [1]: 0.2 µM

Compound: Cc1ccccc1NC(=O)Nc1ccc(-n2cc(CCN3CCOCC3)nn2)cc1
IC50 ([2]; read-out: IC50): 59.7 µM

Compound: CCCCc1cn(-c2ccc(NC(=O)Nc3cccc4cnccc34)cc2)nn1
Papp at 5 h [3]: < 1 nm/s | IC50 ([2]; read-out: IC50): 0.15 µM | remaining at 1 h [4]: 95.2% | IC50 [1]: 2.2 µM

Compound: Cc1ccccc1NC(=O)Nc1ccc(-n2cc(CN3CCOCC3)nn2)cc1
IC50 [2]: Not Active

Compound: Cc1ccccc1NC(=O)Nc1ccc(-n2cc(CCCN3CCOCC3)nn2)cc1
IC50 ([2]; read-out: IC50): 53.8 µM

Compound: CC(C)CCc1cn(-c2ccc(NC(=O)Nc3cccc4cnccc34)cc2)nn1
AUC(0-t) at 24 h [5]: 25.6 µg·h/mL | dose excreted at 24 h [6]: 100% | Activity [7]: Non-Toxic | Activity [8]: Non-Toxic | Vd [9]: 3.4 L/kg | Papp at 5 h [3]: 1.8 nm/s | IC50 [10]: 1.8 µM | IC50 ([2]; read-out: IC50): 0.12 µM | Vd [11]: 7 L/kg | AUC(0-inf) [12]: 30.7 µg·h/mL | IC50 [13]: 1.8 µM | half-life [14]: 7.76 h | Ratio IC50 [15]: 0.8 | Ratio IC50 [16]: 0.7 | Cmax [17]: 5.5 µg/mL | AUC(0-t) at 24 h [18]: 98.5 µg·h/mL | remaining at 1 h [4]: 89.7% | AUC(0-t) at 24 h [19]: 23.7 µg·h/mL | Activity [20]: Non-Toxic | AUC(0-inf) [21]: 25.7 µg·h/mL | Activity [22]: Non-Toxic | AUC [23]: 6114.4 µg·min/mL | Cmax [24]: 15.8 µg/mL | Ratio IC50 [25]: 0.8 | t1/2 [26]: 4.682 h | Tmax [27]: 1 h | IC50 [28]: 1.5 µM | half-life [29]: 8.97 h | Drug uptake [30]: Active | Activity [31]: Non-Toxic | IC50 [1]: 2.1 µM | concentration at 4 h [32]: 10 µM | IC50 [33]: 2.3 µM | clearance [34]: 0.258 L/h/kg | Cmax [35]: 44.4 µg/mL | Ratio IC50 [36]: 1.1 | concentration at 24 h [37]: 2 µM | Drug uptake [38]: Not Active | clearance [39]: 0.48 L/h/kg

Compound: O=C(Nc1ccc(-n2cc(CCO[C@H]3O[C@@H](CO)[C@H](O)[C@@H]3O)nn2)cc1)Nc1ccccc1C(F)(F)F
IC50 [2]: Not Active

Compound: CC(C)CC(=O)OCCc1cn(-c2ccc(NC(=O)Nc3ccccc3C(F)(F)F)cc2)nn1
Papp at 5 h [3]: 42.4 nm/s | remaining at 1 h [4]: 49.3% | IC50 [1]: > 50 µM

Compound: O=C(Nc1ccc(-n2cc(CCO)nn2)cc1)Nc1ccccc1C(F)(F)F
IC50 ([2]; read-out: IC50): 11.2 µM | IC50 [1]: > 50 µM

Compound: CCCCc1cn(-c2ccc(NC(=O)Nc3cc(OP(=O)(OCC)OCC)ccc3C)cc2)nn1
Papp at 5 h [3]: 6.8 nm/s | IC50 ([2]; read-out: IC50): 0.94 µM | remaining at 1 h [4]: 85.2% | IC50 [1]: 5.5 µM

Compound: CCCCc1cn(-c2ccc(NC(=O)Nc3cc(OC4CCOC4)ccc3C)cc2)nn1 (centres undefined)
IC50 ([2]; read-out: IC50): 0.1 µM | IC50 [1]: 2.6 µM

Compound: CCOC(=O)CCc1cn(-c2ccc(NC(=O)Nc3ccccc3C(F)(F)F)cc2)nn1
Papp at 5 h [3]: 15.6 nm/s | IC50 ([2]; read-out: IC50): 2.02 µM | remaining at 1 h [4]: 16.9% | IC50 [1]: > 50 µM
